Test results as given in PubChem BioAssay AID2060892 (Molecular Pharmacology Branch, DTP, NCI, 2025).

Test system: HOP-62 complex spheroids with HUVEC/MSC, viability
Assay: Anticancer human tumor HOP-62 cell line growth inhibition [RAS];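 further: spheroids exposed to agents for seven days before readout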;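 on viability, T/C: 100% = DMSO vehicle control viability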
Conditions: for IC50: curve of first compound; for viability, T/C: stronger effect = lower value; active means viability on the fitted dose curve at most 10% of control; inactive means the rest
Outline: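 Tumour cells grown as complex spheroids with HUVEC endothelial cells and mesenchymal stem cells, treated with RAS pathway inhibitor combinations. Each agent spans half-log steps from near clinical Cmax, or 10 microM where Cmax is unknown.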

[1] = second compound 0.0316 µM, first compound 0.0316 µM
[2] = second compound 0.0316 µM, first compound 0.1 µM
[3] = second compound 0.0316 µM, first compound 0.316 µM
[4] = second compound 0.0316 µM, first compound 1 µM
[5] = second compound 0.1 µM, first compound 0.0316 µM
[6] = second compound 0.1 µM, first compound 0.1 µM
[7] = second compound 0.1 µM, first compound 0.316 µM
[8] = second compound 0.1 µM, first compound 1 µM
[9] = second compound 0.316 µM, first compound 0.0316 µM
[10] = second compound 0.316 µM, first compound 0.1 µM
[11] = second compound 0.316 µM, first compound 0.316 µM
[12] = second compound 0.316 µM, first compound 1 µM
[13] = second compound 1 µM, first compound 0.0316 µM
[14] = second compound 1 µM, first compound 0.1 µM
[15] = second compound 1 µM, first compound 0.316 µM
[16] = second compound 1 µM, first compound 1 µM

CCN1CCN(Cc2ccc(Nc3ncc(F)c(-c4cc(F)c5nc(C)n(C(C)C)c5c4)n3)nc2)CC1 + C=CC(=O)N1CCN(c2nc(OCC3CCCN3C)nc3c(F)c(-c4nc(N)cc(C)c4C(F)(F)F)c(Cl)cc23)C(C)C1
> 1000 nM: IC50 (second compound 0.00316 µM) | IC50 (second compound 0.01 µM) | IC50 (second compound 0.1 µM) | IC50 (second compound 1 µM)
inactive: viability, T/C (second compound 0.00316 µM, first compound 0.00316 µM) 87.7% | viability, T/C (second compound 0.00316 µM, first compound 0.01 µM) 84.1% | viability, T/C (second compound 0.00316 µM, first compound 0.0316 µM) 69.2% | viability, T/C (second compound 0.00316 µM, first compound 0.1 µM) 73% | viability, T/C (second compound 0.00316 µM, first compound 0.316 µM) 64.8% | viability, T/C (second compound 0.00316 µM, first compound 1 µM) 55.5% | viability, T/C (second compound 0.01 µM, first compound 0.00316 µM) 71.5% | viability, T/C (second compound 0.01 µM, first compound 0.01 µM) 64.3% | viability, T/C (second compound 0.01 µM, first compound 0.0316 µM) 62.5% | viability, T/C (second compound 0.01 µM, first compound 0.1 µM) 55.9% | viability, T/C (second compound 0.01 µM, first compound 0.316 µM) 57.3% | viability, T/C (second compound 0.01 µM, first compound 1 µM) 48.8% | viability, T/C (second compound 0.0316 µM, first compound 0.00316 µM) 72.2% | viability, T/C (second compound 0.0316 µM, first compound 0.01 µM) 74.3% | viability, T/C [1] 59% | viability, T/C [2] 52.8% | viability, T/C [3] 47.6% | viability, T/C [4] 46.9% | viability, T/C (second compound 0.1 µM, first compound 0.00316 µM) 69.7% | viability, T/C (second compound 0.1 µM, first compound 0.01 µM) 57.6% | viability, T/C [5] 59.9% | viability, T/C [6] 51.3% | viability, T/C [7] 68.2% | viability, T/C [8] 45.2% | viability, T/C (second compound 0.316 µM, first compound 0.00316 µM) 69% | viability, T/C (second compound 0.316 µM, first compound 0.01 µM) 70.6% | viability, T/C [9] 68.8% | viability, T/C [10] 50.2% | viability, T/C [11] 58% | viability, T/C [12] 46.8% | viability, T/C (second compound 1 µM, first compound 0.00316 µM) 66.7% | viability, T/C (second compound 1 µM, first compound 0.01 µM) 58.6% | viability, T/C [13] 50.6% | viability, T/C [14] 59.9% | viability, T/C [15] 54.7% | viability, T/C [16] 47.1%
613 nM: IC50 (second compound 0.316 µM)
110 nM: IC50 (second compound 0.0316 µM)

NC1c2ccccc2OC12CCN(c1cnc3c(N4CCCc5ncccc54)n[nH]c3n1)CC2 (stereo unspecified) + C#Cc1c(F)ccc2cc(O)cc(-c3ncc4c(N5CC6CCC(C5)N6)nc(OCC56CCCN5CC(F)C6)nc4c3F)c12
71.1 nM: IC50 (second compound 1 µM)
330 nM: IC50 (second compound 0.316 µM)
inactive: viability, T/C [1] 103% | viability, T/C [2] 80.8% | viability, T/C [3] 73.7% | viability, T/C [4] 57.2% | viability, T/C (second compound 0.0316 µM, first compound 3.16 µM) 45.7% | viability, T/C (second compound 0.0316 µM, first compound 10 µM) 26.6% | viability, T/C [5] 92.4% | viability, T/C [6] 91.4% | viability, T/C [7] 61.5% | viability, T/C [8] 49.9% | viability, T/C (second compound 0.1 µM, first compound 3.16 µM) 28.6% | viability, T/C (second compound 0.1 µM, first compound 10 µM) 27.1% | viability, T/C [9] 90.9% | viability, T/C [10] 76.7% | viability, T/C [11] 49.8% | viability, T/C [12] 29.9% | viability, T/C (second compound 0.316 µM, first compound 3.16 µM) 22.3% | viability, T/C (second compound 0.316 µM, first compound 10 µM) 15.1% | viability, T/C [13] 60.2% | viability, T/C [14] 45.7% | viability, T/C [15] 29.7% | viability, T/C [16] 19.3% | viability, T/C (second compound 1 µM, first compound 3.16 µM) 13.8% | viability, T/C (second compound 1 µM, first compound 10 µM) 12.7% | viability, T/C (second compound 3.16 µM, first compound 0.0316 µM) 40.9% | viability, T/C (second compound 3.16 µM, first compound 0.1 µM) 20.9% | viability, T/C (second compound 3.16 µM, first compound 0.316 µM) 15.6% | viability, T/C (second compound 3.16 µM, first compound 1 µM) 11.8% | viability, T/C (second compound 3.16 µM, first compound 3.16 µM) 10.8% | viability, T/C (second compound 3.16 µM, first compound 10 µM) 12.2% | viability, T/C (second compound 10 µM, first compound 0.0316 µM) 16.2% | viability, T/C (second compound 10 µM, first compound 0.1 µM) 11% | viability, T/C (second compound 10 µM, first compound 0.316 µM) 7.6% | viability, T/C (second compound 10 µM, first compound 1 µM) 8.99% | viability, T/C (second compound 10 µM, first compound 3.16 µM) 8.52% | viability, T/C (second compound 10 µM, first compound 10 µM) 17.5%
772 nM: IC50 (second compound 0.1 µM)
1820 nM: IC50 (second compound 0.0316 µM)
< 31.6 nM: IC50 (second compound 3.16 µM) | IC50 (second compound 10 µM)

Nc1ccn(C2OC(CO)C(O)C2(F)F)c(=O)n1 (stereo unspecified) + CCn1c(-c2cccnc2C(C)OC)c2c3cc(ccc31)N1CCOC(CC(NC(=O)C(C(C)C)N(C)C(=O)C3(F)CCN(C(=O)C#CC(C)(C)N(C)C)CC3)C(=O)N3CCCC(N3)C(=O)OCC(C)(C)C2)C1
10.6 nM: IC50 (second compound 0.03 µM)
14 nM: IC50 (second compound 0.000949 µM)
9.19 nM: IC50 (second compound 0.003 µM)
9.58 nM: IC50 (second compound 0.0949 µM)
active: viability, T/C (second compound 0.000949 µM, first compound 0.0316 µM) 9.65% | viability, T/C (second compound 0.000949 µM, first compound 0.1 µM) 7.4% | viability, T/C (second compound 0.000949 µM, first compound 0.316 µM) 7.76% | viability, T/C (second compound 0.000949 µM, first compound 1 µM) 5.24% | viability, T/C (second compound 0.003 µM, first compound 0.1 µM) 7.14% | viability, T/C (second compound 0.003 µM, first compound 0.316 µM) 8.39% | viability, T/C (second compound 0.003 µM, first compound 1 µM) 5.94% | viability, T/C (second compound 0.00949 µM, first compound 0.316 µM) 10.9% | viability, T/C (second compound 0.00949 µM, first compound 1 µM) 5.88% | viability, T/C (second compound 0.03 µM, first compound 0.1 µM) 8.44% | viability, T/C (second compound 0.03 µM, first compound 0.316 µM) 4.99% | viability, T/C (second compound 0.03 µM, first compound 1 µM) 7.65% | viability, T/C (second compound 0.0949 µM, first compound 0.1 µM) 8.95% | viability, T/C (second compound 0.0949 µM, first compound 0.316 µM) 5.53% | viability, T/C (second compound 0.0949 µM, first compound 1 µM) 6.69% | viability, T/C (second compound 0.3 µM, first compound 0.316 µM) 8.97% | viability, T/C (second compound 0.3 µM, first compound 1 µM) 8.38%
8.18 nM: IC50 (second compound 0.00949 µM)
8.77 nM: IC50 (second compound 0.3 µM)
inactive: viability, T/C (second compound 0.000949 µM, first compound 0.00316 µM) 111% | viability, T/C (second compound 0.000949 µM, first compound 0.01 µM) 66.9% | viability, T/C (second compound 0.003 µM, first compound 0.00316 µM) 104% | viability, T/C (second compound 0.003 µM, first compound 0.01 µM) 45.6% | viability, T/C (second compound 0.003 µM, first compound 0.0316 µM) 18.4% | viability, T/C (second compound 0.00949 µM, first compound 0.00316 µM) 87.8% | viability, T/C (second compound 0.00949 µM, first compound 0.01 µM) 41% | viability, T/C (second compound 0.00949 µM, first compound 0.0316 µM) 22.8% | viability, T/C (second compound 0.00949 µM, first compound 0.1 µM) 10.3% | viability, T/C (second compound 0.03 µM, first compound 0.00316 µM) 90% | viability, T/C (second compound 0.03 µM, first compound 0.01 µM) 51.2% | viability, T/C (second compound 0.03 µM, first compound 0.0316 µM) 22.7% | viability, T/C (second compound 0.0949 µM, first compound 0.00316 µM) 83.9% | viability, T/C (second compound 0.0949 µM, first compound 0.01 µM) 48.5% | viability, T/C (second compound 0.0949 µM, first compound 0.0316 µM) 21.7% | viability, T/C (second compound 0.3 µM, first compound 0.00316 µM) 77.8% | viability, T/C (second compound 0.3 µM, first compound 0.01 µM) 45.9% | viability, T/C (second compound 0.3 µM, first compound 0.0316 µM) 22.9% | viability, T/C (second compound 0.3 µM, first compound 0.1 µM) 8.24%
